According to US8530521B2, “Nitrooxy cycloalkane derivatives” (Merck Sharp & Dohme Corp., priority 2008, dated 2013):

Test system: isolated rabbit thoracic aorta preparations
Experiment: Vessel relaxation in isolated rabbit thoracic aorta rings precontracted with noradrenaline
Conditions: for EC50: Oryctolagus cuniculus

| Structure (SMILES) | Max. Relaxation (concentration not given) | Max. Relaxation (@ 1 μM) | EC50 |
| --- | --- | --- | --- |
| CC(=O)N[C@H](C(=O)O)C(C)(C)SN=O (racemic) [SNAP, S-nitroso-N-acetylpenicillamine, reference compound] | 97.3% |  |  |
| CO[C@H]1C[C@@H](C(=O)O)C[C@@H]1O[N+](=O)[O-] [Example 1, (+)-(1R,3S,4S)-3-methoxy-4-(nitrooxy)cyclopentanecarboxylic acid] |  | 37.47% | 126 µM |
| COC(=O)[C@@H]1CC[C@H](OC)[C@@H](O[N+](=O)[O-])C1 [Example 21, (1R,3S,4S)-methyl 4-methoxy-3-(nitrooxy)cyclohexanecarboxylate] |  |  | 1 ± 0.2 µM |
| COC(=O)[C@@H]1CC[C@@H](O[N+](=O)[O-])[C@H](OC)C1 [Example 22, (1R,3R,4R)-methyl 3-methoxy-4-(nitrooxy)cyclohexanecarboxylate] |  |  | 6.3 ± 2 µM |
| COC(=O)[C@@H]1CC[C@H](O[N+](=O)[O-])[C@@H](OC)C1 [Example 23, (1R,3S,4S)-methyl 3-methoxy-4-(nitrooxy)cyclohexanecarboxylate] |  |  | 3.5 ± 0.6 µM |
| COC(=O)[C@@H]1CC[C@@H](OC)[C@H](O[N+](=O)[O-])C1 [Example 24, (1R,3R,4R)-methyl 4-methoxy-3-(nitrooxy)cyclohexanecarboxylate] |  |  | 11.1 ± 4.5 µM |
